Test results: PubChem BioAssay AID1259407 (Chemical Carcinogenesis Research Information System (CCRIS), 2018)
Activity calls are given as the source filed them. The rule behind the calls is not given here.

Tested on: CCRIS mutagenicity, Ames/micronucleus/aberration tests
Test: CCRIS mutagenicity studies
[1] = Test System: AMES SALMONELLA TYPHIMURIUM, Strain/Indicator: TA98, Metabolic Activation: NONE, Method: STANDARD PLATE
[2] = Test System: AMES SALMONELLA TYPHIMURIUM, Strain/Indicator: TA100, Metabolic Activation: NONE, Method: STANDARD PLATE
[3] = Test System: AMES SALMONELLA TYPHIMURIUM, Strain/Indicator: TA100, Metabolic Activation: RAT, LIVER, S-9, AROCLOR 1254, Method: STANDARD PLATE
[4] = Test System: AMES SALMONELLA TYPHIMURIUM, Strain/Indicator: TA100, Metabolic Activation: NONE, Method: PREINCUBATION

SMILES: COc1cc(O)c2c(O)c3c(=O)oc(C)cc3c(OC)c2c1
- mutagenic call (Test System: AMES SALMONELLA TYPHIMURIUM, Strain/Indicator: TA98, Metabolic Activation: MOUSE, LIVER, S-9, AROCLOR 1254, Method: STANDARD PLATE): active; positive
- mutagenic call [1]: active; positive
- mutagenic call (Test System: AMES SALMONELLA TYPHIMURIUM, Strain/Indicator: TA100, Metabolic Activation: MOUSE, LIVER, S-9, AROCLOR 1254, Method: STANDARD PLATE): active; positive
- mutagenic call [2]: active; positive
- mutagenic call (Test System: AMES SALMONELLA TYPHIMURIUM, Strain/Indicator: TA102, Metabolic Activation: MOUSE, LIVER, S-9, AROCLOR 1254, Method: STANDARD PLATE): active; positive
- mutagenic call (Test System: AMES SALMONELLA TYPHIMURIUM, Strain/Indicator: TA102, Metabolic Activation: NONE, Method: STANDARD PLATE): active; positive

SMILES: c1ccc2c(c1)Cc1c-2ccc2ccc3ccccc3c12
- mutagenic call [3]: active; positive

SMILES: CN(C)C(=O)Oc1ccc[n+](C)c1
- mutagenic call (Test System: AMES SALMONELLA TYPHIMURIUM, Strain/Indicator: TA98, Metabolic Activation: HAMSTER, LIVER, S-9, AROCLOR 1254, Method: STANDARD PLATE): inactive; negative
- mutagenic call [1]: inactive; negative
- mutagenic call (Test System: AMES SALMONELLA TYPHIMURIUM, Strain/Indicator: TA98, Metabolic Activation: RAT, LIVER, S-9, AROCLOR 1254, Method: STANDARD PLATE): inactive; negative
- mutagenic call (Test System: AMES SALMONELLA TYPHIMURIUM, Strain/Indicator: TA100, Metabolic Activation: HAMSTER, LIVER, S-9, AROCLOR 1254, Method: STANDARD PLATE): inactive; negative
- mutagenic call [2]: inactive; negative
- mutagenic call [3]: inactive; negative
- mutagenic call (Test System: AMES SALMONELLA TYPHIMURIUM, Strain/Indicator: TA1535, Metabolic Activation: HAMSTER, LIVER, S-9, AROCLOR 1254, Method: STANDARD PLATE): inactive; negative
- mutagenic call (Test System: AMES SALMONELLA TYPHIMURIUM, Strain/Indicator: TA1535, Metabolic Activation: NONE, Method: STANDARD PLATE): inactive; negative
- mutagenic call (Test System: AMES SALMONELLA TYPHIMURIUM, Strain/Indicator: TA1535, Metabolic Activation: RAT, LIVER, S-9, AROCLOR 1254, Method: STANDARD PLATE): inactive; negative
- mutagenic call (Test System: AMES SALMONELLA TYPHIMURIUM, Strain/Indicator: TA1537, Metabolic Activation: HAMSTER, LIVER, S-9, AROCLOR 1254, Method: STANDARD PLATE): inactive; negative
- mutagenic call (Test System: AMES SALMONELLA TYPHIMURIUM, Strain/Indicator: TA1537, Metabolic Activation: NONE, Method: STANDARD PLATE): inactive; negative
- mutagenic call (Test System: AMES SALMONELLA TYPHIMURIUM, Strain/Indicator: TA1537, Metabolic Activation: RAT, LIVER, S-9, AROCLOR 1254, Method: STANDARD PLATE): inactive; negative
- mutagenic call (Test System: AMES SALMONELLA TYPHIMURIUM, Strain/Indicator: TA1538, Metabolic Activation: HAMSTER, LIVER, S-9, AROCLOR 1254, Method: STANDARD PLATE): inactive; negative
- mutagenic call (Test System: AMES SALMONELLA TYPHIMURIUM, Strain/Indicator: TA1538, Metabolic Activation: NONE, Method: STANDARD PLATE): inactive; negative
- mutagenic call (Test System: AMES SALMONELLA TYPHIMURIUM, Strain/Indicator: TA1538, Metabolic Activation: RAT, LIVER, S-9, AROCLOR 1254, Method: STANDARD PLATE): inactive; negative
- mutagenic call (Test System: MOUSE LYMPHOMA, Strain/Indicator: L5178Y (TK+/TK-), Metabolic Activation: NONE, Method: SUSPENSION/PLATE): inactive; negative. reevaluation of results: negative
- mutagenic call (Test System: MOUSE LYMPHOMA, Strain/Indicator: L5178Y (TK+/TK-), Metabolic Activation: RAT, LIVER, S-9, AROCLOR 1254, Method: SUSPENSION/PLATE): active; positive. reevaluation of results: equivocal

SMILES: NCCCNCCSP(=O)(O)O
- mutagenic call (End Point: In vivo micronucleus, Test System: Bone marrow polychromatic erythrocytes, Species: Mouse, Strain/Sex: C57BL/6J/Male, Route: Intraperitoneal): inactive; negative (significant increase in pce/nce ratio only when administered before ga

SMILES: CCCCCN(CCCCC)CCCCC
- mutagenic call (Test System: AMES SALMONELLA TYPHIMURIUM, Strain/Indicator: TA98, Metabolic Activation: HAMSTER, LIVER, S-9, AROCLOR 1254 (10%), Method: PREINCUBATION): inactive; negative
- mutagenic call (Test System: AMES SALMONELLA TYPHIMURIUM, Strain/Indicator: TA98, Metabolic Activation: NONE, Method: PREINCUBATION): inactive; negative
- mutagenic call (Test System: AMES SALMONELLA TYPHIMURIUM, Strain/Indicator: TA98, Metabolic Activation: RAT, LIVER, S-9, AROCLOR 1254 (10%), Method: PREINCUBATION): inactive; negative
- mutagenic call (Test System: AMES SALMONELLA TYPHIMURIUM, Strain/Indicator: TA100, Metabolic Activation: HAMSTER, LIVER, S-9, AROCLOR 1254 (10%), Method: PREINCUBATION): inactive; negative
- mutagenic call [4]: inactive; negative
- mutagenic call (Test System: AMES SALMONELLA TYPHIMURIUM, Strain/Indicator: TA100, Metabolic Activation: RAT, LIVER, S-9, AROCLOR 1254 (10%), Method: PREINCUBATION): inactive; negative
- mutagenic call (Test System: AMES SALMONELLA TYPHIMURIUM, Strain/Indicator: TA1535, Metabolic Activation: HAMSTER, LIVER, S-9, AROCLOR 1254 (10%), Method: PREINCUBATION): inactive; negative
- mutagenic call (Test System: AMES SALMONELLA TYPHIMURIUM, Strain/Indicator: TA1535, Metabolic Activation: NONE, Method: PREINCUBATION): inactive; negative
- mutagenic call (Test System: AMES SALMONELLA TYPHIMURIUM, Strain/Indicator: TA1535, Metabolic Activation: RAT, LIVER, S-9, AROCLOR 1254 (10%), Method: PREINCUBATION): inactive; negative
- mutagenic call (Test System: AMES SALMONELLA TYPHIMURIUM, Strain/Indicator: TA1537, Metabolic Activation: HAMSTER, LIVER, S-9, AROCLOR 1254 (10%), Method: PREINCUBATION): inactive; negative
- mutagenic call (Test System: AMES SALMONELLA TYPHIMURIUM, Strain/Indicator: TA1537, Metabolic Activation: NONE, Method: PREINCUBATION): inactive; negative
- mutagenic call (Test System: AMES SALMONELLA TYPHIMURIUM, Strain/Indicator: TA1537, Metabolic Activation: RAT, LIVER, S-9, AROCLOR 1254 (10%), Method: PREINCUBATION): inactive; negative

SMILES: CC(=O)Oc1ccc2c(c1)OC1(C)OOC21C (stereo not drawn)
- mutagenic call [4]: active; positive
